# ChEMBL document CHEMBL4414576, “Recent advancements in mechanistic studies and structure activity relationship of FoF1 ATP synthase inhibitor as antimicrobial agent” (Eur J Med Chem, 2019)
# How the values were obtained:
# Escherichia coli [1] = experiment: Inhibition of F1F0-ATP synthase in Escherichia coli relative to control; design: concentration or dose not given beside the values; details: concentration not given here
# Streptococcus pneumoniae = experiment: Antimicrobial activity against Streptococcus pneumoniae ATCC 49619; assay type: functional
# Escherichia coli [2] = experiment: Inhibition of F1F0-ATP synthase in Escherichia coli after 60 mins relative to control; design: concentration or dose not given beside the values
# [3] = tested on: Mycobacterium tuberculosis; experiment: Antimicrobial activity against Mycobacterium tuberculosis H37Rv after 5 days; assay type: functional
# ATP synthase = experiment: Inhibition of ATP synthase in Mycobacterium tuberculosis H37Rv; assay type: protein-complex assay
# [4] = Inhibition of F1F0-ATP synthase in Escherichia coli
# Staphylococcus aureus [5] = experiment: Antimicrobial activity against Staphylococcus aureus ATCC 29213; assay type: functional
# [6] = Inhibition of F1F0-ATP synthase in Escherichia coli after 60 mins
# [7] = Selectivity index, ratio of CC50 for African green monkey Vero cells to IC50 of Mycobacterium tuberculosis H37Rv; assay type: toxicity; details: read-out: Ratio IC50
# [8] = tested on: Mycobacterium tuberculosis; experiment: Antimicrobial activity against Mycobacterium tuberculosis H37Rv; assay type: functional, organism-based
# Bacillus subtilis = experiment: Antimicrobial activity against Bacillus subtilis after 1 to 5 days by two-fold dilution; assay type: functional, organism-based
# Escherichia coli [9] = experiment: Antimicrobial activity against Escherichia coli after 1 to 5 days by two-fold dilution; assay type: functional, organism-based
# [10] = tested on: Mycolicibacterium smegmatis; experiment: Antimicrobial activity against Mycobacterium smegmatis after 1 to 5 days by two-fold dilution; assay type: functional, organism-based
# Pseudomonas aeruginosa = experiment: Antimicrobial activity against Pseudomonas aeruginosa after 1 to 5 days by two-fold dilution; assay type: functional, organism-based
# Staphylococcus aureus [11] = experiment: Antimicrobial activity against Staphylococcus aureus after 1 to 5 days by two-fold dilution; assay type: functional, organism-based
# Saccharomyces cerevisiae = experiment: Inhibition of F1F0-ATP synthase in yeast relative to control; details: concentration not given here
# [12] = Inhibition of ATP synthase isolates from rat brain cells using succinate as substrate preincubated for 5 mins followed by substrate addition
# [13] = tested on: Mycobacterium tuberculosis H37Rv; experiment: Inhibition of F0F1-ATP synthase in Mycobacterium tuberculosis H37Rv at […] using succinate as substrate preincubated for 10 mins followed by substrate addition by luciferase reporter gene assay relative to control
# Escherichia coli [14] = experiment: Inhibition of ATP synthase in Escherichia coli relative to control; details: concentration not given here
# [15] = Inhibition of ATP synthase in Escherichia coli
# [16] = Inhibition of ATP synthase in Mycobacterium smegmatis; design: species or system Mycolicibacterium smegmatis
# [17] = Selectivity index, ratio of IC50 for ATP synthase in Mycobacterium tuberculosis H37Rv to IC50 for mitochondrial ATP synthase isolated from swiss albino mouse liver
# [18] = target: ATP synthase (Mycobacterium tuberculosis) (UniProt P9WPU9+P9WPU5+P9WPU7+P9WPV5+P9WPS1+P9WPV1+P9WPV7+P9WPV3); experiment: Inhibition of ATP synthase in Mycobacterium tuberculosis H37Rv whole cell lysate after 18 hrs at 5X of MIC relative to control; assay type: subcellular
# Mus musculus = organism: Mus musculus; experiment: Inhibition of mitochondrial ATP synthase isolated from Swiss albino mouse liver at 100 uM using succinate as substrate after 1 hr relative to control
# [19] = Selectivity index, ratio of CC50 for human HepG2 cells to MIC of Mycobacterium tuberculosis H37Rv; assay type: toxicity
compound,measurement,setting,value
CC[C@H](C)[C@H](NC(=O)CN)C(=O)NCC(=O)N[C@@H](C)C(=O)N[C@H](C(=O)N[C@@H](CC(C)C)C(=O)N[C@@H](CCCCN)C(=O)N[C@H](C(=O)N[C@@H](CC(C)C)C(=O)N[C@H](C(=O)N[C@H](C(=O)NCC(=O)N[C@@H](CC(C)C)C(=O)N1CCC[C@H]1C(=O)N[C@@H](C)C(=O)N[C@@H](CC(C)C)C(=O)N[C@H](C(=O)N[C@@H](CO)C(=O)N[C@@H](Cc1c[nH]c2ccccc12)C(=O)N[C@H](C(=O)N[C@@H](CCCCN)C(=O)N[C@@H](CCCNC(=N)N)C(=O)N[C@@H](CCCCN)C(=O)N[C@@H](CCCNC(=N)N)C(=O)N[C@@H](CCC(N)=O)C(=O)N[C@@H](CCC(N)=O)C(N)=O)[C@@H](C)CC)[C@@H](C)CC)[C@@H](C)O)[C@@H](C)O)C(C)C)C(C)C,inhibition,Escherichia coli [1],78%
COc1ccc(CC[C@@](O)(CCN(C)C)[C@@H](c2ccccc2)c2cc3cc(Br)ccc3nc2OC)cc1,MIC,Streptococcus pneumoniae,0.25 µg/mL
O=c1cc(-c2ccc(O)c(O)c2)oc2cc(O)cc(O)c12,inhibition,Escherichia coli [2],0 to 20%
CCN(CC)Cc1cc(N(c2cc(C)nc3cc(Cl)ccc23)S(=O)(=O)c2ccc([N+](=O)[O-])cc2)ccc1O,MIC,[3],6.25 µg/mL
same,IC50,ATP synthase,0.36 to 1.83 µM
Oc1cccc(/N=C/c2ccccc2O)c1,IC50,[4],5.25 µM
same,inhibition,Escherichia coli [1],85%
C[C@H]1COc2c(N3CCN(C)CC3)c(F)cc3c(=O)c(C(=O)O)cn1c23.C[C@H]1COc2c(N3CCN(C)CC3)c(F)cc3c(=O)c(C(=O)O)cn1c23.O [LEVOFLOXACIN],MIC,Staphylococcus aureus [5],0.25 µg/mL
O=c1cc(-c2ccc(O)cc2)oc2cc(O)cc(O)c12,inhibition,Escherichia coli [2],40 to 60%
Oc1ccc(O)cc1,inhibition,Escherichia coli [1],80%
SILYMARIN,IC50,[6],110 µM
O=c1c(-c2ccc(O)cc2)coc2cc(O)ccc12,inhibition,Escherichia coli [2],0 to 20%
O=C(CNC1CCCCC1)N(c1ccccc1)c1ccccc1,selectivity ratio,[7],21.1
same,IC50,[8],14 µM
FC(F)(F)Oc1cccc(CNCCNC2C3CC4CC(C3)C2C4)c1 (stereo not given),MIC,Bacillus subtilis,6.25 µg/mL
same,MIC,Escherichia coli [9],6.25 µg/mL
same,IC50,[10],20 µM
same,MIC,Pseudomonas aeruginosa,12.5 µg/mL
same,MIC,Staphylococcus aureus [11],6.25 µg/mL
O=c1c(O)c(-c2ccc(O)cc2)oc2cc(O)cc(O)c12,inhibition,Escherichia coli [2],40 to 60%
O=c1cc(-c2ccccc2)oc2cc(O)c(O)c(O)c12 [BAICALEIN],inhibition,Escherichia coli [2],100%
same,IC50,[6],290 µM
O=c1c(-c2ccc(O)cc2)coc2cc(O)cc(O)c12,inhibition,Escherichia coli [2],40 to 60%
COc1cc(=O)oc(/C=C/C=C/C=C/C(C)=C/[C@]2(C)O[C@H](C)[C@](C)(O)[C@H]2O)c1C,inhibition,Saccharomyces cerevisiae,85%
O=c1cc(-c2ccccc2)oc2cc(O)cc(O)c12,inhibition,Escherichia coli [2],40 to 60%
NC12CC3CC(CC(C3)C1)C2 [AMANTADINE],inhibition,Escherichia coli [2],100%
same,IC50,[6],2500 µM
O=C(O[C@@H]1Cc2c(O)cc(O)cc2O[C@@H]1c1cc(O)c(O)c(O)c1)c1cc(O)c(O)c(O)c1 [EPIGALOCATECHIN GALLATE],IC50,[12],17 µM
COc1cc(C2Oc3cc([C@H]4Oc5cc(O)cc(O)c5C(=O)[C@@H]4O)ccc3OC2CO)ccc1O (stereo not given in full) [SILIBININ],inhibition,Escherichia coli [2],100%
same,IC50,[6],340 µM
COc1ccccc1N1CCN(CC(O)COC(c2ccccc2)c2cccc3ccccc23)CC1 (stereo not given),inhibition,[13],90%
O=[N+]([O-])c1ccc(/N=C/c2ccccc2O)c(O)c1,IC50,[4],5 µM
same,inhibition,Escherichia coli [1],100%
O=c1c(O)c(-c2ccc(O)c(O)c2)oc2cc(O)cc(O)c12 [QUERCETIN],inhibition,Escherichia coli [14],80%
same,IC50,[15],33 µM
COc1nc2ccc(Br)cc2cc1[C@H](c1ccccc1)[C@](O)(CCCCN(C)C)CCc1ccccc1,MIC,Streptococcus pneumoniae,0.25 µg/mL
same,MIC,Staphylococcus aureus [5],2 µg/mL
Oc1ccccc1/C=N/c1ccccc1O,IC50,[4],7 µM
same,inhibition,Escherichia coli [1],95%
CC(N)C12CC3CC(CC(C3)C1)C2 (stereo not given) [RIMANTADINE],inhibition,Escherichia coli [2],100%
same,IC50,[6],2000 µM
OC(COC(c1ccccc1)c1cccc2ccccc12)CN1CCN(C(c2ccccc2)c2ccccc2)CC1 (stereo not given),inhibition,[13],98%
Oc1cccc(O)c1,inhibition,Escherichia coli [1],20%
COc1cc(/C=C/C(=O)CC(=O)/C=C/c2ccc(O)c(OC)c2)ccc1O [CURCUMIN],IC50,[12],45 µM
CC1(C)CC(=O)C(=CNc2ccccc2O)C(=O)C1,IC50,[16],4 µM
same,Ratio IC50,[17],11.6
same,inhibition,[18],15 to 30%
same,inhibition,Mus musculus,25%
same,selectivity ratio,[19],20
same,MIC,[8],2 µg/mL
